assay: recombinant barcode read abundance after kanamycin selection (control-corrected) (log10(CPM+1)); higher = more efficient recombination; sequences stand for … in AGTGCAGAGAAAATCGGCCAGTTTTCTCTGCCTGCAGTCCGCATGCCGT…AGATTTATGCAGCGGACTGCCTTTCTCCCAAAGTGATAAACCGGACAGTATCATGGACCGGTTTTCCCGGTAATCCGTATTTGCAAGGTTGGTTTCACT; site = the 11-nt target
Summary of the method: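 In E. coli, a pooled library matched targets to IS621 bridge RNA target-binding loops and was introduced alongside a donor plasmid. Cells went onto chloramphenicol/ampicillin/kanamycin with 0.1 mM IPTG or onto chloramphenicol/ampicillin LB agar as control, in duplicate. Recombination efficiency, from recombinant-junction barcodes as counts per million, is averaged and control-corrected. It is reported as log10(CPM+1).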
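Also: IS621 recombinase and bridge RNA in Escherichia coli cells.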

Sequence | recombinant barcode read abundance (log10)
TGTAGTCCTTGGGTTCTAACCTGTTGCTT (site TGTAGTCCTAG) | 0.187
TGTAGTCCTTGGGTTCTAACCTGTTGCTT (site TGTAGTCCTAT) | 0.0117
TGTATAGCTTGGGTTCTAACCTGTTGCTA (site GGTTTAGCTTA) | 0.00884
TGTATAGCTTGGGTTCTAACCTGTTGCTA (site TGTATAGCTTA) | 0.0299
TGTCAACCTTGGGTTCTAACCTGTTGCCT (site TGTCAAACTAG) | 0.346
TGTCAACCTTGGGTTCTAACCTGTTGCCT (site TGTCAACCTAG) | 0.998
TGTCAACCTTGGGTTCTAACCTGTTGCCT (site TGTCAAGCTAG) | 0.12
TGTCAACCTTGGGTTCTAACCTGTTGCCT (site TGTCAATCTAG) | 0
TGTCATGCTTGGGTTCTAACCTGTTGCGT (site CTCACACCTCT) | 0.238
TGTCATGCTTGGGTTCTAACCTGTTGCGT (site TGTCATGCTAC) | 0.163
TGTCCTGCTTGGGTTCTAACCTGTTGCCT (site AGTCCTGCTAG) | 0
TGTCCTGCTTGGGTTCTAACCTGTTGCCT (site CGTCCTGCTAG) | 0.167
TGTCCTGCTTGGGTTCTAACCTGTTGCCT (site GGTCCTGCTAG) | 0.11
TGTCCTGCTTGGGTTCTAACCTGTTGCCT (site TGTCCTGCTAG) | 0.36
TGTCGATCTTGGGTTCTAACCTGTTGCCT (site TGTCAATCTAC) | 0.0889
TGTCGATCTTGGGTTCTAACCTGTTGCCT (site TGTCGATCTAG) | 0.94
TGTCTAGCTTGGGTTCTAACCTGTTGCGG (site CCAAATCCTAT) | 0.208
TGTCTAGCTTGGGTTCTAACCTGTTGCGG (site TGTCTAGCTCC) | 0.695
TGTCTATCTTGGGTTCTAACCTGTTGCCT (site TGTCTACCTAG) | 0.123
TGTCTATCTTGGGTTCTAACCTGTTGCCT (site TGTCTATCTAG) | 0.429
TGTCTGGCTTGGGTTCTAACCTGTTGCCT (site AGTCTGGCTAG) | 0.215
TGTCTGGCTTGGGTTCTAACCTGTTGCCT (site TGTCTGGCTAG) | 0.0185
TGTCTGTCTTGGGTTCTAACCTGTTGCTA (site TGTCTGTCTAA) | 0.0174
TGTCTGTCTTGGGTTCTAACCTGTTGCTA (site TGTCTGTCTTA) | 0.0943
TGTGAGTCTTGGGTTCTAACCTGTTGCGT (site TGTGAGTCTAA) | 0.347
TGTGAGTCTTGGGTTCTAACCTGTTGCGT (site TGTGAGTCTAC) | 2.55

Sequence | recombinant barcode read abundance (log10)
TGTGAGTCTTGGGTTCTAACCTGTTGCGT (site TGTGAGTCTAG) | 0.27
TGTGAGTCTTGGGTTCTAACCTGTTGCGT (site TGTGAGTCTAT) | 1.42
TGTGCGGCTTGGGTTCTAACCTGTTGCCT (site AGTGCGGCTAG) | 0.0331
TGTGCGGCTTGGGTTCTAACCTGTTGCCT (site CGTGCGGCTAG) | 0.00936
TGTGCGGCTTGGGTTCTAACCTGTTGCCT (site GGTGCGGCTAG) | 0.535
TGTGCGGCTTGGGTTCTAACCTGTTGCCT (site TGTGCGGCTAG) | 0.152
TGTTCCTCTTGGGTTCTAACCTGTTGCCT (site TGTACCTCTAG) | 0.143
TGTTCCTCTTGGGTTCTAACCTGTTGCCT (site TGTCCCTCTAG) | 0.142
TGTTCCTCTTGGGTTCTAACCTGTTGCCT (site TGTGCCTCTAG) | 0.114
TGTTCCTCTTGGGTTCTAACCTGTTGCCT (site TGTTCCTCTAG) | 0.106
TGTTCTACTTGGGTTCTAACCTGTTGCCG (site TGCTCTACTCA) | 0.052
TGTTCTACTTGGGTTCTAACCTGTTGCCG (site TGTTCTACTCG) | 0.0964
TGTTCTCCTTGGGTTCTAACCTGTTGCCT (site AGTTCTCCTAG) | 0.0134
TGTTCTCCTTGGGTTCTAACCTGTTGCCT (site CGTTCTCCTAG) | 0.0608
TGTTCTCCTTGGGTTCTAACCTGTTGCCT (site GGTTCTCCTAG) | 0.064
TGTTCTCCTTGGGTTCTAACCTGTTGCCT (site TGTTCTCCTAG) | 0
TGTTGACCTTGGGTTCTAACCTGTTGCAT (site TGTAGATCTAT) | 0.0346
TGTTGACCTTGGGTTCTAACCTGTTGCAT (site TGTTGACCTAT) | 0.329
TTACATGCTTGGGTTCTAACCTGTTGCCT (site AAGATCACTCC) | 0.281
TTACATGCTTGGGTTCTAACCTGTTGCCT (site TTACATGCTAG) | 1.27
TTAGAGGCTTGGGTTCTAACCTGTTGCCT (site TTAGAGACTAG) | 0.363
TTAGAGGCTTGGGTTCTAACCTGTTGCCT (site TTAGAGCCTAG) | 0
TTAGAGGCTTGGGTTCTAACCTGTTGCCT (site TTAGAGGCTAG) | 1.13
TTAGAGGCTTGGGTTCTAACCTGTTGCCT (site TTAGAGTCTAG) | 0.0154
TTAGCATCTTGGGTTCTAACCTGTTGCCT (site TTAGCATCTAG) | 0.589
TTAGCATCTTGGGTTCTAACCTGTTGCCT (site TTAGCCTCTAG) | 0.412

Sequence | recombinant barcode read abundance (log10)
TTAGCATCTTGGGTTCTAACCTGTTGCCT (site TTAGCGTCTAG) | 0.161
TTAGCATCTTGGGTTCTAACCTGTTGCCT (site TTAGCTTCTAG) | 0.0531
TTAGGGTCTTGGGTTCTAACCTGTTGCCT (site TTAGGGACTAG) | 0.252
TTAGGGTCTTGGGTTCTAACCTGTTGCCT (site TTAGGGCCTAG) | 1.17
TTAGGGTCTTGGGTTCTAACCTGTTGCCT (site TTAGGGGCTAG) | 0.0984
TTAGGGTCTTGGGTTCTAACCTGTTGCCT (site TTAGGGTCTAG) | 2.15
TTAGTCGCTTGGGTTCTAACCTGTTGCCT (site TTAGTAGCTAG) | 0.191
TTAGTCGCTTGGGTTCTAACCTGTTGCCT (site TTAGTCGCTAG) | 2.28
TTAGTCGCTTGGGTTCTAACCTGTTGCCT (site TTAGTGGCTAG) | 0.134
TTAGTCGCTTGGGTTCTAACCTGTTGCCT (site TTAGTTGCTAG) | 0.0472
TTAGTTGCTTGGGTTCTAACCTGTTGCCT (site TTAGTAGCTAG) | 0.225
TTAGTTGCTTGGGTTCTAACCTGTTGCCT (site TTAGTCGCTAG) | 0.0596
TTAGTTGCTTGGGTTCTAACCTGTTGCCT (site TTAGTGGCTAG) | 0.0286
TTAGTTGCTTGGGTTCTAACCTGTTGCCT (site TTAGTTGCTAG) | 1.4
TTCAACTCTTGGGTTCTAACCTGTTGCGT (site TTCAACTCTAC) | 1.56
TTCAACTCTTGGGTTCTAACCTGTTGCGT (site TTCAAGTCTAC) | 0.0543
TTCAAGCCTTGGGTTCTAACCTGTTGCGT (site TTCAAGCCTAC) | 1.17
TTCAAGCCTTGGGTTCTAACCTGTTGCGT (site TTCAAGCCTCC) | 0.0397
TTCAGCCCTTGGGTTCTAACCTGTTGCCT (site TACAGCCCTAG) | 0.456
TTCAGCCCTTGGGTTCTAACCTGTTGCCT (site TTCAGCCCTAG) | 0.679
TTCAGTCCTTGGGTTCTAACCTGTTGCAT (site TTAAGTCCTAG) | 0
TTCAGTCCTTGGGTTCTAACCTGTTGCAT (site TTCAGTCCTAT) | 0.509
TTCATGTCTTGGGTTCTAACCTGTTGCCT (site TTCACGTCTAG) | 0.0724
TTCATGTCTTGGGTTCTAACCTGTTGCCT (site TTCATGTCTAG) | 0.811
TTCCGTCCTTGGGTTCTAACCTGTTGCTT (site CGAGTGACTTG) | 0.0499

From the supplement of paper PMC11208160
